Data on eleven molecules can be found in ChEMBL document CHEMBL1201862, “PubChem BioAssay data set” (2004).

Among the test systems are MDA-MB-231; CAKI-1; HL-60; SNB-75; BT-549; SW-620; OVCAR-4; MDA-N; SK-OV-3; HCT-15; HCT-116; SN12C; CCRF-CEM; UO-31; COLO 205; SR; UACC-257; 786-0; HCC 2998; HOP-62.
Holding throughout (experiment): DTP human tumour cell line panel, 48 h

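Dose response: 5 concentrations. Exposure: 48 h. Format: 96-well plates. Endpoint: linear interpolation; highest concentration if not reached. Here, GI50 denotes the concentration required for 50% inhibition of growth.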 Activity calls are given as the source filed them. Cut-off read from the data, not from the text of the source: active = GI50 up to about 1.1 µM and inactive = higher.

By GI50 is commonly meant the concentration giving 50% growth inhibition. For the molecule `Cc1nccn1S(=O)(=O)c1ccc(Br)cc1Br`, the GI50 is 19.1 µM (inactive) with MDA-MB-231; 30 µM (inactive) with CAKI-1; 19.1 µM (inactive) with HL-60; 12.5 µM (inactive) in the assay with SNB-75; 56.2 µM (inactive) in the assay on BT-549; 28.5 µM (inactive) with SW-620. For the same molecule, the GI50 in the assay on OVCAR-4 was 29.5 µM (inactive); in the assay with MDA-N it was 20.7 µM (inactive); with SK-OV-3, 41.8 µM (inactive); in the assay with HCT-15, 28.4 µM; with HCT-116, 31.6 µM (inactive); with SN12C, 29.7 µM (inactive). The GI50 in the assay on CCRF-CEM was 26.5 µM (inactive); with UO-31, 22.3 µM (inactive); in the assay with COLO 205 it was 18.6 µM (inactive); in the assay on SR it was 24.7 µM (inactive); in the assay on UACC-257, 34.9 µM (inactive); in the assay on 786-0, 45.7 µM (inactive).

Turning to `CC(=O)NC(C)(C)C1CC=C(C)/C(=N\O)C1` (stereo unspecified), the GI50 in the assay on MDA-MB-231, in the assay with HCC 2998, with HL-60, in the assay with SNB-75, with BT-549 and in the assay on SW-620 was > 100 µM (inactive) in each case. In addition, the GI50 in the assay with OVCAR-4 is > 100 µM (inactive); with MDA-N, > 100 µM (inactive); in the assay on SK-OV-3, > 100 µM (inactive); in the assay with HCT-15 it was over 100 µM; in the assay with HCT-116, > 100 µM (inactive); in the assay with HOP-62, > 100 µM (inactive). The GI50 in the assay on SN12C, in the assay on CCRF-CEM, with UO-31, with COLO 205, in the assay on SR and in the assay with UACC-257 was > 100 µM (inactive) throughout. Further, the GI50 in the assay with 786-0 was > 100 µM (inactive).

For `CC1=C(C(=O)NNC(=O)C[N+](C)(C)C)CC(C(=O)NNC(=O)C[N+](C)(C)C)=C(C)N1`, the GI50 in the assay with MDA-MB-231 was > 100 µM (inactive); in the assay with CAKI-1, > 100 µM (inactive); in the assay on HCC 2998 it was > 100 µM (inactive); with HL-60, 24.9 µM (inactive); in the assay on BT-549, > 100 µM (inactive); with SW-620, > 100 µM (inactive). Moreover, the GI50 in the assay with OVCAR-4 was > 100 µM (inactive); with MDA-N, > 100 µM (inactive); in the assay with SK-OV-3 it was > 100 µM (inactive); in the assay on HCT-15, over 100 µM; in the assay with HCT-116, > 100 µM (inactive); in the assay on HOP-62 it was > 100 µM (inactive). For the same molecule, the GI50 in the assay with SN12C was > 100 µM (inactive); with CCRF-CEM it was 21.8 µM (inactive); in the assay on UO-31, 68.4 µM (inactive); in the assay on COLO 205 it was > 100 µM (inactive); with SR, 35.6 µM (inactive); with UACC-257, > 100 µM (inactive). The GI50 in the assay on 786-0 is > 100 µM (inactive).

On to `COC(=O)[C@]12CSC[C@H]1C[C@H](c1ccccc1OC)N2`, for which the GI50 in the assay with MDA-MB-231, in the assay on CAKI-1, in the assay with HCC 2998, in the assay with SNB-75, in the assay on BT-549 and with SW-620 was > 100 µM (inactive) in each case. Further, the GI50 in the assay on OVCAR-4 is > 100 µM (inactive); with MDA-N, > 100 µM (inactive); in the assay on SK-OV-3, > 100 µM (inactive); in the assay with HCT-15, over 100 µM; in the assay on HCT-116, > 100 µM (inactive); with HOP-62, > 100 µM (inactive). For the same molecule, the GI50 in the assay with SN12C, in the assay on CCRF-CEM, in the assay with UO-31, with COLO 205, with SR and in the assay with UACC-257 was > 100 µM (inactive) each time. Further, the GI50 in the assay on 786-0 was > 100 µM (inactive).

`Cn1c(=O)c2nc(SCc3ccccn3)[nH]c2n(C)c1=S`: the GI50 in the assay on MDA-MB-231 is 76.6 µM (inactive); in the assay with CAKI-1, > 100 µM (inactive); in the assay with HL-60 it was > 100 µM (inactive); with SNB-75 it was 19.5 µM (inactive); in the assay with BT-549 it was > 100 µM (inactive); in the assay with SW-620, > 100 µM (inactive). The GI50 is > 100 µM (inactive) in the assay with OVCAR-4; > 100 µM (inactive) with MDA-N; 27.7 µM (inactive) in the assay with SK-OV-3; over 100 µM with HCT-15; > 100 µM (inactive) with HCT-116; 44 µM (inactive) in the assay on HOP-62. For the same molecule, the GI50 in the assay on SN12C is 74.1 µM (inactive); with CCRF-CEM it was > 100 µM (inactive); in the assay with UO-31, 70.5 µM (inactive); in the assay on COLO 205, > 100 µM (inactive); with SR, > 100 µM (inactive); in the assay on UACC-257 it was > 100 µM (inactive). The GI50 in the assay with 786-0 is 67.5 µM (inactive).

For the molecule `COc1cc2c(cc1OC)C13CCN4CC5CCOC6CC(=O)N2C1C6C5CC43` (stereo unspecified), the GI50 in the assay on MDA-MB-231, in the assay with CAKI-1, in the assay with HCC 2998, in the assay on HL-60, with BT-549 and with SW-620 was > 100 µM (inactive) each time. In addition, the GI50 was > 100 µM (inactive) in the assay on OVCAR-4; > 100 µM (inactive) with MDA-N; > 100 µM (inactive) in the assay with SK-OV-3; over 100 µM with HCT-15; > 100 µM (inactive) in the assay on HCT-116; > 100 µM (inactive) in the assay with HOP-62. Further, the GI50 was > 100 µM (inactive) in the assay with SN12C; 54.5 µM (inactive) in the assay with CCRF-CEM; > 100 µM (inactive) in the assay with UO-31; > 100 µM (inactive) in the assay with COLO 205; 2.65 µM (inactive) with SR; > 100 µM (inactive) with UACC-257. Also, the GI50 with 786-0 is > 100 µM (inactive).

For the molecule `Cc1cn2c(/C=C3/C(=O)Nc4ccccc43)c(C)nc2s1`, the GI50 in the assay with MDA-MB-231 is 1.48 µM (inactive); in the assay on CAKI-1, 3.07 µM (inactive); in the assay on HCC 2998, 1.84 µM (inactive); in the assay with HL-60 it was 0.321 µM (active); with SNB-75, 3.79 µM (inactive); with BT-549, 3.95 µM (inactive). Moreover, the GI50 in the assay on SW-620 is 0.504 µM (active); in the assay on MDA-N, 0.165 µM (active); in the assay on SK-OV-3 it was 3.15 µM (inactive); in the assay on HCT-15 it was 0.679 µM; in the assay on HCT-116, 0.867 µM (active); in the assay on HOP-62, 3.79 µM (inactive). The GI50 with SN12C is 7.03 µM (inactive); in the assay on CCRF-CEM it was 1.03 µM (active); in the assay with UO-31 it was 5.6 µM (inactive); in the assay on COLO 205, 0.433 µM (active); in the assay on SR it was 0.507 µM (active); in the assay with UACC-257, 2.78 µM (inactive). Also, in the assay with 786-0, the GI50 was 3.82 µM (inactive).

On to `Cc1nc(N)c(N2CCNCC2)c(O)n1`, for which the GI50 with MDA-MB-231, with HCC 2998, with HL-60, in the assay with SNB-75, in the assay on BT-549 and with SW-620 was > 100 µM (inactive) in each case. Further, the GI50 with MDA-N is > 100 µM (inactive); in the assay on HCT-15 it was over 100 µM; in the assay on HCT-116 it was > 100 µM (inactive); with HOP-62, > 100 µM (inactive); in the assay on SN12C, > 100 µM (inactive); in the assay on CCRF-CEM, > 100 µM (inactive). Also, the GI50 in the assay with UO-31, with COLO 205, in the assay on SR, in the assay with UACC-257 and in the assay with 786-0 was > 100 µM (inactive) in each case.

In the case of `C=C(CCC/C(C)=C/C=C/[C@H](C)CCCc1ccoc1)C[C@@H]1OC(=O)[C@H](C)[C@@H]1O`, the GI50 with MDA-MB-231 is 9.89 µM (inactive); with CAKI-1 it was 8.99 µM (inactive); in the assay with HCC 2998, 10.1 µM (inactive); with SNB-75 it was 8.75 µM (inactive); in the assay with BT-549, 8.69 µM (inactive); in the assay with SW-620 it was 12.8 µM (inactive). The GI50 in the assay on OVCAR-4 was 4.73 µM (inactive); in the assay on MDA-N it was 9.98 µM (inactive); with SK-OV-3, 8.15 µM (inactive); with HCT-15 it was 11.4 µM; in the assay on HCT-116, 11.5 µM (inactive); in the assay on HOP-62 it was 8.63 µM (inactive). In addition, the GI50 is 8.79 µM (inactive) in the assay with SN12C; 11.9 µM (inactive) in the assay on CCRF-CEM; 7.69 µM (inactive) with UO-31; 12.6 µM (inactive) with COLO 205; 11.8 µM (inactive) in the assay on SR; 7.18 µM (inactive) in the assay with UACC-257. In the assay on 786-0, the GI50 is 11.2 µM (inactive).

Regarding `CC(C)(C)c1cc(C(C)(C)C)c2sc(=S)oc2c1O`, the GI50 is 13.6 µM (inactive) with MDA-MB-231; 5.64 µM (inactive) with CAKI-1; 7.45 µM (inactive) with HL-60; 6.49 µM (inactive) in the assay on SNB-75; 8.51 µM (inactive) in the assay on BT-549; 9.1 µM (inactive) with SW-620. Moreover, the GI50 with OVCAR-4 was 11.7 µM (inactive); with MDA-N it was 6.01 µM (inactive); with SK-OV-3, 17.9 µM (inactive); with HCT-15, 4.98 µM; in the assay on HCT-116, 6.25 µM (inactive); in the assay on HOP-62 it was 14.9 µM (inactive). In addition, the GI50 is 6.14 µM (inactive) in the assay with SN12C; 3.76 µM (inactive) in the assay with CCRF-CEM; 4.12 µM (inactive) with UO-31; 14.5 µM (inactive) with COLO 205; 3.18 µM (inactive) in the assay with SR; 14.3 µM (inactive) in the assay with UACC-257. In addition, in the assay on 786-0, the GI50 was 7.45 µM (inactive).

Consider `C1=N\c2ccc(cc2)-c2ccc(cc2)/N=C\c2ccc(cc2)OCc2cccc(n2)COc2ccc/1cc2`, for which the GI50 in the assay on MDA-MB-231 was > 100 µM (inactive); in the assay with CAKI-1, > 100 µM (inactive); with HL-60 it was > 100 µM (inactive); in the assay with SNB-75, 64.7 µM (inactive); with BT-549, > 100 µM (inactive); with SW-620, > 100 µM (inactive). In addition, the GI50 in the assay on OVCAR-4 was > 100 µM (inactive); in the assay on MDA-N, > 100 µM (inactive); in the assay on SK-OV-3, 61.2 µM (inactive); in the assay with HCT-15, over 100 µM; in the assay on HCT-116, > 100 µM (inactive); in the assay with HOP-62, 27.3 µM (inactive). Moreover, the GI50 was > 100 µM (inactive) in the assay on SN12C; 97.7 µM (inactive) in the assay with CCRF-CEM; > 100 µM (inactive) in the assay with UO-31; > 100 µM (inactive) in the assay on COLO 205; > 100 µM (inactive) in the assay with SR; > 100 µM (inactive) in the assay with UACC-257. The GI50 in the assay on 786-0 is > 100 µM (inactive).
